Where two headings read alike, the source gives them in different places.
Columns and labels:
[1] = cited from earlier work
CYP2B6 [2] = assay: CYP2B6 enzyme induction assay in cryopreserved primary human hepatocytes (PHH); type: in vitro ADME; conditions: for Assigned classification CYP2B6: PHH;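 as to Assigned classification CYP2B6: code 1 means positive inducer and 0 means non-inducer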
CYP2B6 [3] = conditions: cited from earlier work
[4] = Solubility by visual inspection (DMSO stock solution and assay medium); type: physicochemical; conditions: assay medium
Protocol: The SOPs relied on visual inspection for solubility observation. […] The absence of precipitation in the medium was checked pre- and post-incubation (24 hours) by centrifugation of the sample and observation of any precipitation (pellet residue).

CYP1A2 = CYP1A2 enzyme induction assay in cryopreserved primary human hepatocytes (PHH); type: in vitro ADME; conditions: for Prediction in vivo inducer: Cmax/F2 >0.5 criterion; for Assigned classification CYP1A2: PHH;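 as to Assigned classification CYP1A2: code 1 means positive inducer and 0 means non-inducer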
CYP = CYP isoforms induced; ref Abadie et al. (2009), Richert et al. (2010), Preissner et al. (2010), Hoffmann et al. (2014); cited from earlier work
CYP3A4 [5] = conditions: cited from earlier work
[6] = Solubility by nephelometry (EURL ECVAM); type: physicochemical
Excerpt: In addition to the visual inspection performed by the validation laboratories as described in the SOP, EURL ECVAM introduced nephelometry for systematic solubility determination of the 13 validation set chemicals. Nephelometry uses a laser beam and the principle of Tyndall effect light scatter to detect turbidity due to insolubility. The nephelometer method used formazin as reference item (1, 5, 10 and 20 nephelometric turbidity units (NTU)) to calculate the relative turbidity (RTU) of the validation set of chemicals. To the naked eye, 20 NTU is perceptible, while the nephelometer was sensitive to 5 NTU, with 1 NTU equivalent to background (solvent/medium blank).

CYP3A4 [7] = assay: CYP3A4 enzyme induction assay in cryopreserved primary human hepatocytes (PHH); conditions: for Assigned classification CYP3A4: PHH
[8] = human in vivo, CYP named without remark = induced, ref references in the cell, Washington University database, Hoffmann et al. (2014), Pelkonen et al. (2008), Hukkanen et al. (2012)

In the case of `O=C1Nc2ccc(Cl)cc2[C@@](C#CC2CC2)(C(F)(F)F)O1` [Efavirenz], the Cmax ([1]; human in vivo plasma concentration, normal dose) is given as 9.1 to 12.6 µM, the Cmax ([1]; human in vivo, normal dose (Table 10)) is given as 9.1 to 12.6 µM and the F2 (CYP2B6 [2]; CYP2B6, PHH) is given as 4.69 µM. For the same compound, the Induction in vitro (CYP2B6 [2]; CYP2B6, PHH) was “Yes”, the “Prediction in vivo inducer” value (CYP2B6 [2]; CYP2B6, PHH) was “Yes” and the “Prediction in vivo inducer” value (CYP2B6 [2]; CYP2B6, PHH, Cmax/F2 >0.5 criterion) was “positive”. For the same compound, the “Assigned classification CYP2B6” value (CYP2B6 [2]; Lab 1, batch 0 6 A) was 1, the “Assigned classification CYP2B6” value (CYP2B6 [2]; Lab 1, batch 4 0 8) was 1 and the “Assigned classification CYP2B6” value (CYP2B6 [2]; Lab 1, batch 8 0 8) was 1. The “Assigned classification CYP2B6” value (CYP2B6 [2]; Lab 2, batch 0 6 A) was 1, the “Assigned classification CYP2B6” value (CYP2B6 [2]; Lab 2, batch 4 0 8) was 1 and the “Assigned classification CYP2B6” value (CYP2B6 [2]; Lab 2, batch 8 0 8) was 0. For the same compound, the “Assigned classification CYP2B6” value (CYP2B6 [2]; Lab 3, batch 0 6 A) was 1, the “Assigned classification CYP2B6” value (CYP2B6 [2]; Lab 3, batch 4 0 8) was 0 and the “Assigned classification CYP2B6” value (CYP2B6 [2]; Lab 3, batch 8 0 8) was 0. The Induction in vivo (CYP2B6 [3]; CYP2B6, human in vivo reference classification) was “Yes”, the “CYP induction in vivo literature reference: CYP2B6” value (CYP2B6 [3]; [8]) was “CYP2B6” and the HepaRG medium stability ([4]; Lab 1, visual observation) was 20 µg/mL. For the same compound, the HepaRG medium stability ([4]; Lab 2, visual observation) was 40 µg/mL, the HepaRG medium stability ([4]; Lab 3, visual observation) was 40 µg/mL and the PHH medium stability ([4]; Lab 4, visual observation) was 40 µg/mL. For the same compound, the PHH medium stability ([4]; Lab 5, visual observation) was 40 µg/mL, the PHH medium stability ([4]; Lab 6, visual observation) was 40 µg/mL and the “Prediction in vivo inducer” value (CYP1A2; CYP1A2, PHH) was “No”. The “Prediction in vivo inducer” value (CYP1A2; CYP1A2, PHH, listed as efavirenz) was “non-inducers”, the Induction in vitro (CYP1A2; CYP1A2, PHH, positive in one donor in each of the three laboratories) was “No” and the “Assigned classification CYP1A2” value (CYP1A2; Lab 1, batch 0 6 A) was 0. For the same compound, the “Assigned classification CYP1A2” value (CYP1A2; Lab 1, batch 4 0 8) was 0, the “Assigned classification CYP1A2” value (CYP1A2; Lab 1, batch 8 0 8) was 0 and the “Assigned classification CYP1A2” value (CYP1A2; Lab 2, batch 0 6 A) was 0. The “Assigned classification CYP1A2” value (CYP1A2; Lab 2, batch 4 0 8) was 0, the “Assigned classification CYP1A2” value (CYP1A2; Lab 2, batch 8 0 8) was 0 and the “Assigned classification CYP1A2” value (CYP1A2; Lab 3, batch 0 6 A) was 0. The “Assigned classification CYP1A2” value (CYP1A2; Lab 3, batch 4 0 8) was 0, the “Assigned classification CYP1A2” value (CYP1A2; Lab 3, batch 8 0 8) was 0 and the “CYP induction in vitro (human hepatocytes)” value (CYP) was “CYP2B6, CYP3A4”. For the same compound, the Induction in vivo (CYP3A4 [5]; CYP3A4, human in vivo reference classification (Table 12)) was “Yes”, the “CYP induction in vivo literature reference: CYP3A4” value (CYP3A4 [5]; [8]) was “CYP3A4” and the “nephelometry finding in assay medium” value ([6]; 40 μg/ml, the two media) was “insoluble suspensions”. The HepaRG medium stability ([6]; ECVAM nephelometry, HepaRG medium, ^2 = solubility limit) was 20 µg/mL, the PHH medium stability ([6]; ECVAM nephelometry, ^2 = solubility limit) was 40^2 μg/mL and the PHH medium stability ([6]; ECVAM nephelometry, ^2 = solubility limit, listed as efavirenz) was 40 µg/mL. For the same compound, the F2 (CYP3A4 [7]; CYP3A4, PHH) was 14.1 µM, the Induction in vitro (CYP3A4 [7]; CYP3A4, PHH) was “Yes” and the “Prediction in vivo inducer” value (CYP3A4 [7]; CYP3A4, PHH) was “Yes”. For the same compound, the “Assigned classification CYP3A4” value (CYP3A4 [7]; Lab 1, batch 0 6 A) was 1, the “Assigned classification CYP3A4” value (CYP3A4 [7]; Lab 1, batch 4 0 8) was 1 and the “Assigned classification CYP3A4” value (CYP3A4 [7]; Lab 1, batch 8 0 8) was 1. The “Assigned classification CYP3A4” value (CYP3A4 [7]; Lab 2, batch 0 6 A) was 1, the “Assigned classification CYP3A4” value (CYP3A4 [7]; Lab 2, batch 4 0 8) was 1 and the “Assigned classification CYP3A4” value (CYP3A4 [7]; Lab 2, batch 8 0 8) was 1. For the same compound, the “Assigned classification CYP3A4” value (CYP3A4 [7]; Lab 3, batch 0 6 A) was 1, the “Assigned classification CYP3A4” value (CYP3A4 [7]; Lab 3, batch 4 0 8) was 1 and the “Assigned classification CYP3A4” value (CYP3A4 [7]; Lab 3, batch 8 0 8) was 1.

— PMC6718736, “Validation of in vitro methods for human cytochrome P450 enzyme induction: Outcome of a multi-laboratory study” (Toxicology in Vitro, 2019)
